Entries after “also recorded” stand apart in the source; their conditions may differ. Like-named read-outs stand apart in the source and are kept apart here.
Columns and labels:
[1] = test system: Pseudomonas aeruginosa; test: Broth microdilution MIC/MBC; type: cell-based; conditions: P. aeruginosa, antibiotic alone, unit not given
From the text: (§1) Staphylococcus aureus CCUG 35601 (MRSA, Culture Collection, University of Gothenburg) and Staphylococcus aureus ATCC 29213 (MSSA, ATCC, Manassas, VA). Staphylococcus epidermidis ATCC 12228 (ATCC, Manassas, VA), RP62A, N15 and 10 clinical isolates of Staphylococcus epidermidis that have previously been characterized. Isolated Escherichia coli, Enterococcus faecium (including VRE), Pseudomonas aeruginosa, Klebsiella pneumoniae, Enterobacter spp and Acinetobacter baumannii were obtained from Orebro University hospital. Isolated Streptococcus mutans, Streptococcus constellatus and Streptococcus anginosus were obtained from Malmo University. The bacteria were grown on Luria-Bertani (LB) agar plates, supplemented with 5% defibrinated horse blood, and incubated at 37° C. overnight. Single colonies were inoculated into 5 ml of LB broth and incubated on a shaker (300 rpm) at 37° C. overnight. The bacterial concentration was determined by viable count and adjusted to correlate with approximately 10^9 CFU/ml.
(§2) The broth microdilution method was used to determine minimal inhibitory concentration (MIC) and minimal bactericidal concentration (MBC). Two-fold serial dilutions of the peptides were used and the final concentrations ranged from 0.097-50 μM. […] The effect of bacteriocin-antibiotic combinations was accomplished by using the same concentration series of antibiotics with a constant concentration of PLNC8 αβ (3.1 μM) in all the wells. […] All experiments were repeated at least three times.

[2] = test system: S. epidermidis ATCC 12228; test: Broth microdilution MIC/MBC; type: cell-based, Staphylococcus epidermidis; conditions: for enhancement of the inhibitory effects of β1-20 and β7-20: co-incubation with α-peptide; for inhibitory and bactericidal effects on S. epidermidis: α-peptide in combination with the β-peptide; for growth inhibition of S. epidermidis: single full-length or truncated peptide
From the text: as §1, §2

[3] = test system: S. epidermidis; test: Broth microdilution MIC/MBC, strain not named; type: cell-based, Staphylococcus epidermidis; conditions: for MBC / MIC: Table 8, antibiotic alone
From the text: as §1, §2

[4] = test system: Escherichia coli; test: Broth microdilution MIC/MBC; type: cell-based; conditions: antibiotic alone, unit not given; for MBC: in µg/mL
From the text: as §1, §2

[5] = test system: Enterococcus faecium; test: Broth microdilution MIC/MBC; type: cell-based; conditions: antibiotic alone, unit inferred; for MIC: unit assumed
From the text: as §1, §2

[6] = test system: S. epidermidis 157 (hGISE strain); test: Broth microdilution MIC/MBC; type: cell-based, Staphylococcus epidermidis
From the text: as §1, §2

[7] = test system: S. epidermidis 126 (hGISE strain); test: Broth microdilution MIC/MBC; type: cell-based, Staphylococcus epidermidis
From the text: as §1, §2

[8] = test system: S. epidermidis 154; test: Broth microdilution MIC/MBC; type: cell-based, Staphylococcus epidermidis
From the text: as §1, §2

[9] = test system: S. aureus CCUG 35601 (MRSA); test: Broth microdilution MIC/MBC; type: cell-based, Staphylococcus aureus
From the text: as §1, §2

[10] = Fluorescence leakage assay (CF release from liposomes); conditions: for disruption of liposome membranes (CF release): peptide alone; for lysis of liposomes: after 2 min, both the L-form and D-form
Procedure: Liposomes were prepared by dry film formation, hydration and finally extrusion through a polycarbonate membrane to form monodisperse large unilamellar vesicles. […] A dry lipid film was formed by evaporation of the chloroform by nitrogen flow and overnight lyophilization. The film was hydrated with either 10 mM phosphate buffer (PB) pH 7 or 10 mM phosphate buffer saline (PBS) pH 7, and the solution was vortexed for 1 min and put on a shaker for 1 h before extruded 21 times through a 100 nm pore-sized polycarbonate membrane. For fluorescence leakage assay the lipid film was hydrated with buffer (PBS) containing self-quenching concentration (50 mM) of 5(6)-carboxyfluorescein (CF) (Sigma Aldrich) and liposomes were prepared as described above. Removal of unencapsulated CF was done by gel filtration using a PD-25 column (GE Healthcare, Uppsala, Sweden) and liposomes with encapsulated CF were eluted with PBS. Leakage of the liposome encapsulated fluorophore CF due to additions of the bacteriocins was recorded using a fluorescence plate reader (Infinite 200, Tecan, Austria) where λex=485 nm and λem=520 nm. CF was encapsulated at self-quenching concentration, and CF release results in an increased fluorescence signal. […] In order to estimate the maximum release from each sample a final addition of 0.5% Triton X-100 was made at the end of all measurements and the total amount of CF (100% release) was estimated after 15 min incubation. The CF release is presented as percentage release for each time interval (measurements taken every minute). The percentage CF release is calculated as 100×(F−F0)/(FT−F0) where F0 is the initial fluorescence intensity of CF before peptide addition, F is the fluorescence intensity of CF at time point t and FT is the maximum fluorescence after the addition of Triton X-100.

[11] = test system: S. epidermidis RP62A biofilms; test: Bacterial biofilm disruption; type: cell-based, Staphylococcus epidermidis; conditions: 1 h
Procedure: S. epidermidis RP62A was inoculated into 5 ml of LB broth and incubated on a shaker at 37° C. overnight. The bacterial culture was diluted 1:100 into fresh media and 100 μl of bacterial suspension per well was added in a 96-well microtiter plate and incubated statically at 37° C. for 20 h. The wells were washed three times by submerging the plate into a container with distilled water to remove unattached cells. Fresh LB media was added to each well (100 μl) followed by addition of the peptides in different concentrations. The plate was incubated statically for 1 h. Detached material in the wells were transferred to a new microtiter plate for absorbance measurements at 620 nm. The remaining attached biofilms were stained with 0.1% crystal violet for 15 min before the plate was washed four times in distilled water as mentioned above and allowed to dry at room temperature for 2 h. The crystal violet was solubilized in 30% acetic acid for 15 min and the absorbance quantified at 550 nm. Each experiment, with three replicates, was repeated three times.

[12] = Non-ESBL E. coli, first isolate
[13] = Non-ESBL E. coli, second isolate
[14] = Vancomycin resistant E. faecium (VRE)
[15] = Staphylococcus epidermidis, 154
[16] = Staphylococcus epidermidis, ATCC12228
[17] = ESBL-producing E. coli, first isolate
[18] = ESBL-producing E. coli, second isolate
[19] = Table 3, MRSA, antibiotic alone

C[C@H]1COc2c(N3CCN(C)CC3)c(F)cc3c(=O)c(C(=O)O)cn1c23 [Levofloxacin, reference compound]
MBC ([1]; first isolate): 2 | MIC ([1]; first isolate): 1 | MBC ([1]; second isolate): 4 | MIC ([1]; second isolate): 4

C[C@@H](O)[C@H]1C(=O)N2C(C(=O)O)=C(S[C@@H]3CN[C@H](C(=O)N(C)C)C3)[C@H](C)[C@H]12 [Meropenem, reference compound]
MBC ([1]; first isolate): 50 | MIC ([1]; first isolate): 25 | MBC ([1]; second isolate): 25 | MIC ([1]; second isolate): 25

CO[C@H]1/C=C/O[C@@]2(C)Oc3c(C)c(O)c4c(O)c(c(/C=N/N5CCN(C)CC5)c(O)c4c3C2=O)NC(=O)/C(C)=C\C=C\[C@H](C)[C@H](O)[C@@H](C)[C@@H](O)[C@@H](C)[C@H](OC(C)=O)[C@@H]1C [Rifampicin]
MBC ([2]; Staphylococcus epidermidis, ATCC12228, Table 2, antibiotic alone, read-out: MBC): 0.5 µg/mL | MIC ([2]; Staphylococcus epidermidis, ATCC12228, Table 2, antibiotic alone, read-out: MIC): 0.25 µg/mL | MBC ([3]; Staphylococcus epidermidis, read-out: MBC): 0.5 µg/mL | MIC ([3]; Staphylococcus epidermidis, read-out: MIC): 0.25 µg/mL | effective amount of rifampicin ([3]; in the presence of L-PLNC8 αβ or D-PLNC8 αβ): 0.0019 µg/mL | MIC [4, 12]: 6.25 | MIC [4, 13]: 6.25 | MBC [4, 13]: 25 | MBC ([5]; E. faecium, first isolate): > 50 µg/mL | MIC ([5]; E. faecium, first isolate): > 50 µg/mL | MBC ([5]; E. faecium, second isolate): > 50 µg/mL | MIC ([5]; E. faecium, second isolate): 25 µg/mL | MBC [5, 14]: 3.1 µg/mL | MIC [5, 14]: < 0.097 µg/mL

CN[C@H](CC(C)C)C(=O)N[C@H]1C(=O)N[C@@H](CC(N)=O)C(=O)N[C@H]2C(=O)N[C@H]3C(=O)N[C@H](C(=O)N[C@H](C(=O)O)c4cc(O)cc(O)c4-c4cc3ccc4O)[C@H](O)c3ccc(c(Cl)c3)Oc3cc2cc(c3O[C@@H]2O[C@H](CO)[C@@H](O)[C@H](O)[C@H]2O[C@H]2C[C@](C)(N)[C@H](O)[C@H](C)O2)Oc2ccc(cc2Cl)[C@H]1O [Vancomycin]
MBC ([6]; Staphylococcus epidermidis): 6.25 µg/mL | MIC ([6]; Staphylococcus epidermidis): 6.25 µg/mL | MBC ([7]; Staphylococcus epidermidis): 3.1 µg/mL | MIC ([7]; Staphylococcus epidermidis): 3.1 µg/mL | MBC [8, 15]: 3.1 µg/mL | MIC [8, 15]: 1.5 µg/mL | MBC [2, 16]: 3.1 µg/mL | MIC [2, 16]: 1.5 µg/mL | MBC ([9]; Staphylococcus aureus): 3.1 µg/mL | MIC ([9]; Staphylococcus aureus): 1.5 µg/mL

DLTTKLWSSWGYYLG (Lactobacillus plantarum NC8) [α1-15]
enhancement of the inhibitory effects of β1-20 and β7-20 [2]: not further enhanced; also recorded: did not further enhance

DLTTKLWSSWGYYLGKKARWNL (Lactobacillus plantarum NC8) [α1-22]
enhancement of the inhibitory effects of β1-20 and β7-20 [2]: not further enhanced; also recorded: did not further enhance | inhibitory and bactericidal effects on S. epidermidis [2]: exerted inhibitory and bactericidal effects; also recorded: inhibited | disruption of liposome membranes (CF release) [10]: disrupted the membrane of the liposomes

Gentamicin
MBC ([2]; Table 2, antibiotic alone): 0.31 µg/mL | MIC ([2]; Table 2, antibiotic alone): 0.31 µg/mL | MIC [4, 17]: >50 | MBC [4, 17]: >50 | MIC [4, 18]: 3.125 | MBC [4, 18]: 6.25 | MIC [4, 12]: 1.56 | MBC [4, 12]: 1.56 | MIC [4, 13]: 1.56 | MBC [4, 13]: 3.125 | MBC ([5]; E. faecium, first isolate): > 50 µg/mL | MIC ([5]; E. faecium, first isolate): 50 µg/mL | MBC ([5]; E. faecium, second isolate): 50 µg/mL | MIC ([5]; E. faecium, second isolate): 50 µg/mL | MBC [5, 14]: > 50 µg/mL | MIC [5, 14]: > 50 µg/mL

H-DLTTKLWSSWGYYLGKKARWNLKHPYVQF-OH [PLNC8 α]
enhancement of the inhibitory effects of β1-20 and β7-20 [2]: not further enhanced | inhibitory and bactericidal effects on S. epidermidis [2]: inhibited | lysis of liposomes [10]: not | disruption of liposome membranes (CF release) [10]: disrupted the membrane of the liposomes | disruption of biofilms [11]: disruptive effects on the biofilms

H-SVPTSVYTLGIKILWSAYKHRKTIEKSFNKGFYH-OH [PLNC8 β]
growth inhibition of S. epidermidis [2]: inhibited | lysis of liposomes [10]: complete lysis of liposomes after 2 min | disruption of liposome membranes (CF release) [10]: Disruption of the liposome membranes | disruption of biofilms [11]: disruptive effects on the biofilms

SVPTSVYTLGIKILWSAYKH (Lactobacillus plantarum NC8) [β1-20]
growth inhibition of S. epidermidis [2]: most efficiently inhibited; also recorded: most effective in inhibiting S. epidermidis; also recorded: inhibited | disruption of liposome membranes (CF release) [10]: Disruption of the liposome membranes

Teicoplanin
MBC ([6]; Table 3, antibiotic alone): 25 µg/mL | MIC ([6]; Table 3, antibiotic alone): 12.5 µg/mL | MBC ([7]; Table 3, antibiotic alone): 6.25 µg/mL | MIC ([7]; Table 3, antibiotic alone): 3.1 µg/mL | MBC ([8]; Table 3, antibiotic alone): 1.5 µg/mL | MIC ([8]; Table 3, antibiotic alone): 1.5 µg/mL | MBC ([2]; Table 2, antibiotic alone): 1.5 µg/mL | MIC ([2]; Table 2, antibiotic alone): 1.5 µg/mL | MBC [9, 19]: 3.1 µg/mL | MIC [9, 19]: 0.78 µg/mL | MBC [3]: 1.5 µg/mL | MIC [3]: 1.5 µg/mL | MIC [4, 17]: >50 | MBC [4, 17]: >50 | MIC [4, 18]: >50 | MBC [4, 18]: >50 | MIC [4, 12]: >50 | MBC [4, 12]: >50 | MIC [4, 13]: >50 | MBC [4, 13]: >50 | MBC ([5]; E. faecium, first isolate): > 50 µg/mL | MIC ([5]; E. faecium, first isolate): > 50 µg/mL | MBC ([5]; E. faecium, second isolate): 25 µg/mL | MIC ([5]; E. faecium, second isolate): 0.39 µg/mL | MBC [5, 14]: 50 µg/mL | MIC [5, 14]: 0.39 µg/mL

YTLGIKILWSAYKH (Lactobacillus plantarum NC8) [β7-20]
growth inhibition of S. epidermidis [2]: most efficiently inhibited; also recorded: inhibited | disruption of liposome membranes (CF release) [10]: Disruption of the liposome membranes

YTLGIKILWSAYKHRKTIEKSFNKGFYH (Lactobacillus plantarum NC8) [β7-34]
growth inhibition of S. epidermidis [2]: inhibited | disruption of liposome membranes (CF release) [10]: Disruption of the liposome membranes

Reference: patent US12064464B2, “Plantaricin NC8 alpha beta markedly enhances the effects of antibiotics” (priority 2018, dated 2024)
